Test results from the NIST ThermoML archive (doi:10.1021/je700371w).

Conditions: Liquid, Closed cell (Static) method

Cc1cccnc1N [2-amino-3-methylpyridine]
Conditions | vapor or sublimation pressure [kPa]
328.7 K | 0.098
329.84 K | 0.108
336.23 K | 0.165
344.13 K | 0.271
349.18 K | 0.368
354.89 K | 0.515
357.64 K | 0.598
359.93 K | 0.69
363.55 K | 0.82
368.61 K | 1.08
374.67 K | 1.47
387.23 K | 2.67
390.85 K | 3.13
398.46 K | 4.32
405.57 K | 5.82
411.35 K | 7.34
415.63 K | 8.67
421.5 K | 10.75
425.85 K | 12.61
428.75 K | 13.95
431.43 K | 15.29
435.66 K | 17.74
439.42 K | 20.12
443.51 K | 23.01
447.94 K | 26.5
448.95 K | 27.3
450.76 K | 28.88
451.84 K | 29.81
454.19 K | 32.09
455.25 K | 33.15
456.78 K | 34.61
457.95 K | 36.08
460.15 K | 38.48
461.72 K | 40.22
469.63 K | 50.38
478.22 K | 63.87
484.84 K | 76.42
490.45 K | 87.65
495.13 K | 99.74
496.05 K | 101.44
497.73 K | 105.38
498.8 K | 108.53
499.88 K | 111.35

O [water]
Conditions | vapor or sublimation pressure [kPa]
297.95 K | 3.14
303.85 K | 4.41
309.05 K | 5.93
313.25 K | 7.44
318.75 K | 9.86
322.95 K | 12.2
329.35 K | 16.71
333.45 K | 20.18
338.55 K | 25.51
342.85 K | 30.8
348.25 K | 38.66
353.65 K | 48.42
358.35 K | 58.2
362.95 K | 69.67
368.45 K | 85.35
371.75 K | 96.28
373.25 K | 101.56
375.75 K | 111.23
